Experimental data from ChEMBL document CHEMBL1687697 (ACS Med Chem Lett, 2010).
The source made the active and inactive calls. No cut-off for these calls is given here.

How the values were obtained:
[1] = target: Signal transducer and activator of transcription 3 (Homo sapiens) (UniProt P40763); assay: Inhibition of STAT3 in human HeLa cells at 5 uM after 24 hrs by luciferase reporter gene assay; assay type: cell-based
[2] = target: Signal transducer and activator of transcription 3 (Homo sapiens) (UniProt P40763); assay: Inhibition of STAT3 in human HeLa cells after 24 hrs by luciferase reporter gene assay; assay type: cell-based

Chain of Signal transducer and activator of transcription 3 (Homo sapiens) (P40763 whole entry): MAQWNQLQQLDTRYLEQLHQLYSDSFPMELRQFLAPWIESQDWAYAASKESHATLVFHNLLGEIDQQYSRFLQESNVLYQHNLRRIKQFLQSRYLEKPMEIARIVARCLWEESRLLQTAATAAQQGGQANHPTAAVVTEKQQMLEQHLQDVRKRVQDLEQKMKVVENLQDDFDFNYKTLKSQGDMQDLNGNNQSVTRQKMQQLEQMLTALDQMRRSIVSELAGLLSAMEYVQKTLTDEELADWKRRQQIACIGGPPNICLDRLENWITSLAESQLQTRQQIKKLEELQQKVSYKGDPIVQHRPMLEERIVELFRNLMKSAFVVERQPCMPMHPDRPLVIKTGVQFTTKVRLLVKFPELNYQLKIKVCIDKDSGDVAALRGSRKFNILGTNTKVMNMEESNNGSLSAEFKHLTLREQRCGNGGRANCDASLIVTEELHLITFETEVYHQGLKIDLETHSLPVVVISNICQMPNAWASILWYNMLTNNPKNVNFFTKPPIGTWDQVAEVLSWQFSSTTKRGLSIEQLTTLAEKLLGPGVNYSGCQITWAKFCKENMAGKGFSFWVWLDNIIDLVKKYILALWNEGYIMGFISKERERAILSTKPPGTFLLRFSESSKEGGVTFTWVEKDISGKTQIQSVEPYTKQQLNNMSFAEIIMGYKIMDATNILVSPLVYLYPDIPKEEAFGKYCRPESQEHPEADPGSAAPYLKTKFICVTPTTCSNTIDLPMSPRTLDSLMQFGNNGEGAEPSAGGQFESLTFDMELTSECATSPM

| SMILES | inhibition [1] | inhibition [2] |
| --- | --- | --- |
| CCOC(=O)c1c(CSc2ccccc2)n(C)c2cc(Br)c(O)c(CN(C)C)c12 | inactive | – |
| COc1ccc(-c2cc(=O)c3c(O)cc(O[C@@H]4O[C@H](CO[C@@H]5O[C@@H](C)[C@H](O)[C@@H](O)[C@H]5O)[C@@H](O)[C@H](O)[C@H]4O)cc3o2)cc1O | – | inactive |
